According to patent publication US20210251883A1, “METHOD FOR PREPARING ENZYME-TREATED ZIZANIA LATIFOLIA TURCZ. EXTRACT HAVING INCREASED TRICIN CONTENT, AND COMPOSITION FOR WHITENING, WRINKLE REDUCTION, ANTI-INFLAMMATION, ANTI-ALLERGY AND MOISTURIZATION, PREPARED THEREBY” (BTC CORPORATION, priority 2018, published 2021):

Assays:
[1] = system: RAW264.7 cells; assay: NO assay in lipopolysaccharide-induced macrophage cell line RAW264.7; assay type: cell-based; conditions: concentration series of single substance; versus LPS
Experimental: The production of NO was confirmed through the NO assay, and the specific process was as follows: The macrophage cell line RAW264.7 was distributed from the Korea Cell Line Bank (KCLB, Seoul, Korea), and using DMEM medium (Welgene, Gyeongsan, Korea) to which 10% FBS and 1% antibiotics (penicillin/streptomycin) were added, the cells were subcultured 2 to 3 times in an incubator at 37° C. in the presence of 5% CO2 and used.
RAW264.7 cells were dispensed into a 96-well plate at […] and pre-cultured in a 5% CO2 incubator for 20 to 24 hours, and each extract sample was treated and cultured for 24 hours. […] After the reaction was completed, optical density (O.D) was measured with an ELISA reader at a wavelength of 540 nm. At this time, the measured O.D was expressed as a percentage (%) compared with the O.D value in the cells to which lipopolysaccharide was added.
Second, NO assay was performed to measure the anti-inflammatory effect of the Zizania latifolia Turcz. extract and tricin using RAW264.7. […] After the reaction was completed, optical density (O.D) was measured with an ELISA reader at a wavelength of 540 nm. At this time, the measured O.D was expressed as a percentage (%) compared with the O.D value in the cells to which lipopolysaccharide was added. […]

[2] = system: B16-F0 cells; assay: inhibition of melanin production in melanin cell line B16-F0 (α-MSH/IBMX stimulated); assay type: cell-based, mouse; conditions: concentration series of single substance
Experimental: The whitening effect of the Zizania latifolia Turcz. extract prepared in the above Preliminary Experiments 2 to 4 was confirmed. First, mouse-derived melanin cell line B16-F0 cells were distributed from the American Type Culture Collection (ATCC, USA), and using DMEM medium (ATCC, ATCC 30-2002, USA) to which 10% FBS and 1% antibiotics (penicillin/streptomycin) were added, the cells were subcultured 2 to 3 times in an incubator at 37° C. in the presence of 5% CO2 and used.
Second, the ability of the Zizania latifolia Turcz. extract and tricin to inhibit melanin production in the mouse-derived melanin cell line B16-F0 was measured. B16-F0 cells were dispensed into a 6-well plate at 5×10^5 cells/well and pre-cultured in a 5% CO2 incubator for 20 to 24 hours, and then each extract sample was treated and cultured for 48 hours. […]
The melanoma cells adhered to the surface of the 6-well plate were removed from the cultured cells, dispensed into a 1.5 mL tube, and centrifuged at 13,000 rpm for 10 minutes using a centrifuge maintained at 4° C. […] After reacting for 1 hour in an oven at 60° C., 100 μL was dispensed to each well in a 96-well plate and O.D was measured with an ELISA reader (405 nm). […]

[3] = system: CCD-986sk fibroblast cells, human dermal fibroblasts (HDF); assay: procollagen type I C-peptide EIA, collagen synthesis in fibroblasts; assay type: cell-based; conditions: concentration series of single substance
Experimental: The anti-wrinkle effect of the Zizania latifolia Turcz. extract prepared in Preliminary Experiments 2 to 4 was confirmed. First, human-derived CCD-986sk fibroblast cells were distributed from Korea Culture Tissue Collection (KCTC, Korea), and human dermal fibroblasts (HDF) were distributed from Seorin Bio. In addition, CCD-986sk fibroblasts were subcultured 2 to 3 times in an incubator at 37° C. in the presence of 5% CO2 using IMDM medium (ATCC, ATCC 30-2005, USA) supplemented with 10% FBS and 1% antibiotics (penicillin/streptomycin) and used. […]
Second, procollagen and MMP families (MMP-1, 2, 3, 9, 13) are factors that are discharged to the outside of the cell culture solution, and the cell culture solution reacted with the sample was collected and used. […] (standard sample), procollagen type I C-peptide EIA kit manufactured by Takara was used, the quantification curve was measured using PIP to calculate the amount of collagen synthesis for each sample. In addition, by measuring the inhibitory ability of metalloproteinase-1 (MMP-1), MMP-2, MMP-3, MMP-9, and […], which are factors affecting wrinkles, Zizania latifolia Turcz. enzyme treatment (standard sample) and tricin were evaluated for wrinkle improvement effect. The inhibitory ability of MMP-1, 2, 3, 9, 13 was measured using a product manufactured by Abcam.

[4] = system: SKH-1 hairless mouse; assay: UVB-irradiated wrinkle-induced SKH-1 hairless mouse animal experiment; assay type: in vivo
Text: The anti-wrinkle improvement and moisturizing effects were confirmed through animal experiments for the enzyme-treated extract of Zizania latifolia Turcz. prepared in the above Example 1. For the experiment, biochemical analysis equipment (Roche Ltd, Basel, Switzerland), glass teflon homogenizer (Chang shin scientific Co., Korea), microplate reader (Bio-TEK, USA), protein quantification equipment (Chemi-Doc; BIORAD, USA), a centrifuge (Hanil FLETA5, Korea), a water bath (Thermo minder taitec, Japan), and a deep freezer (Sanyo, Japan) were used. In addition, glass Teflon homogenizer (Daihan Scientific Group, Korea), UV-spectrophotometer (Shimadzu UV-1201, Japan), high-speed centrifuge (Hanil HMR-1610V, Korea), medical freezer (Sanyo, Japan)), a microplate reader (Bio-TEK), and protein quantification equipment (Chemi-Doc; BIORAD) were used. […]
First, the body weight of each animal was measured to observe the change in body weight. […]

[5] = system: RBL-2H3 cells; assay: β-hexosaminidase release in IgE/antigen-stimulated RBL-2H3 cells; assay type: cell-based, rat; conditions: concentration series of single substance; versus DNP-HSA
Experimental: The anti-allergic efficacy of the Zizania latifolia Turcz. extract prepared in the above Preliminary Experiments 2 to 4 was confirmed. First, RBL-2H3 cells, a rat basophilic leukemia cell line, were purchased from Korea Cell Line Bank (KCLB, Seoul, Korea). RBL-2H3 cells were cultured in MEM (Gibco BRL, NY, USA) medium containing 10% FBS and 1% penicillin/streptomycin in an incubator at 37° C. and 5% CO2.
Second, the inhibitory effect of the extract on the release of β-hexosaminidase was confirmed in RBL-2H3 cells. RBL-2H3 cells were dispensed into a 24-well plate at 2×10^5 cells per well and stimulated with anti-DNP IgE (450 ng/mL) overnight at 37° C. […] Then, the reaction was stopped by immersing in an ice water bath for 10 minutes. 25 μL of the supernatant was transferred to a 96-well plate and 25 μL of 0.1 M citrate buffer (pH 4.5) in which the substrate (1 mM p-nitrophenyl-nacetyl-β-D-glucosaminide) is dissolved, was added and reacted at 37° C. for 1 hour. Thereafter, 200 μL of a stop solution (0.1 M Na2CO3/NaHCO3, pH 10.0) was added to stop the reaction, and the absorbance was measured at 405 nm using a microplate reader.

Compound: COc1cc(-c2cc(=O)c3c(O)cc(O)cc3o2)cc(OC)c1O [tricin, Tricin]
- NO generation according to the concentration (FIG. 7) [1]: decreased in a concentration-dependent manner
- melanin generation according to the concentration (FIG. 9) [2]: decreased in a concentration-dependent manner
- collagen generation according to the concentration (FIG. 11) [3]: increased in a concentration-dependent manner
- moisture of the skin surface ([4]; T group, 0.3 mg/kg oral, 14 weeks, UVB, FIG. 16): maintained
- SILFLO microscopic observation of wrinkles versus group C ([4]; group T, tricin 2 mg/kg as printed, until the 8th week of UVB irradiation): wrinkles were relatively less formed compared to group C
- β-hexosaminidase release rate according to the concentration (FIG. 13) [5]: decreased in a concentration-dependent manner
